Data taken from paper PMC11204923, “Marine Cytotoxin Santacruzamate A Derivatives as Potent HDAC1-3 Inhibitors and Their Synergistic Anti-Leukemia Effects with Venetoclax” (Marine Drugs, 2024).
Several values for one entry are separate records, joined by “and”; a condition that tells them apart may be missing. Equal values may be shown once.

Assays:
Assay type in all cases: biochemical
HDAC6 = biological target: T1, HDAC6 (Homo sapiens, UniProt Q9UBN7); assay: In vitro HDAC inhibition fluorescence assay, HDAC6
T1 construct: purchased BPS Bioscience
T1 sequence (Q9UBN7 1-1215): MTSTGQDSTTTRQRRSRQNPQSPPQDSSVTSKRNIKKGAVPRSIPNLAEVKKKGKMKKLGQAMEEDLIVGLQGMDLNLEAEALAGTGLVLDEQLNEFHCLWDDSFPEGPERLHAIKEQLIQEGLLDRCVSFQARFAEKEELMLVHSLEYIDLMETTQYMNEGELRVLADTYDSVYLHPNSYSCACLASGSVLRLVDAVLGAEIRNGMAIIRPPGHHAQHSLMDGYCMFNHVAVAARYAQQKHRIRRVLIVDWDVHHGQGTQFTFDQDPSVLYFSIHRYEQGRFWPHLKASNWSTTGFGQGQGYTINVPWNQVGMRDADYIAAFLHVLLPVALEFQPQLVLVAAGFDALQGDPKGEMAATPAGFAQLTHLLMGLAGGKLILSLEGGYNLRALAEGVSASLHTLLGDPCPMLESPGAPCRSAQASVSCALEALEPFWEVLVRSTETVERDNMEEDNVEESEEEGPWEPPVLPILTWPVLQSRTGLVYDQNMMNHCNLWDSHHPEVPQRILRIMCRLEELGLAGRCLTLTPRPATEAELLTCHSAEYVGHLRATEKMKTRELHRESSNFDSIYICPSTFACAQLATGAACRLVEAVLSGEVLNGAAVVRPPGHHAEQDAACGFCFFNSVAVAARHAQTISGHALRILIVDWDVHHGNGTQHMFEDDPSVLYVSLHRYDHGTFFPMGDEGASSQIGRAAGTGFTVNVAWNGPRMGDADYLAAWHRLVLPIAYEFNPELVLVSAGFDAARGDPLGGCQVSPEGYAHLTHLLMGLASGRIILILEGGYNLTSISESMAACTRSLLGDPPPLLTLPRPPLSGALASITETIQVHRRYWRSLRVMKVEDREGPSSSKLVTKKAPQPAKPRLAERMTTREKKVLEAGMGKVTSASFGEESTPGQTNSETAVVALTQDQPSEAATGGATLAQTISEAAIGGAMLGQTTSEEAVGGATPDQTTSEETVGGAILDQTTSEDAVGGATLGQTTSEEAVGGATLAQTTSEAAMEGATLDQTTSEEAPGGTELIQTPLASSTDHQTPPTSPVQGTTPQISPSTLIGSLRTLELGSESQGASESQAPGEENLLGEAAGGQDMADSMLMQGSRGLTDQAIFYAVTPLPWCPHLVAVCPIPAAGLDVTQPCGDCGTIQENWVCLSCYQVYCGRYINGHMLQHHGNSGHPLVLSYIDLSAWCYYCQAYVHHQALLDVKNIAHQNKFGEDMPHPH
Procedure: (§1) All of the HDAC enzymes were purchased from BPS Bioscience. In vitro HDAC inhibition assays were conducted as previously described. In brief, 20 μL of recombinant HDAC enzyme solution (HDAC1-9, 11) was mixed with various concentrations of the tested compound (20 μL). The mixture was incubated at 37 °C for 1 h, and then, 10 μL of fluorogenic substrate (Boc-Lys (acetyl)-AMC for HDAC1, 2, 3 and 6; Boc-Lys (trifluoroacetyl)AMC for HDAC4, 5, 7, 8, 9 and 11) was added to achieve a final concentration of 50 μM. After incubation at 37 °C for 2 h, the catalysis was stopped by the addition of 10 μL of developer containing 30 mg/mL trypsin and 6 μM trichostatin A (TSA). Then, 30 min later, the fluorescence intensity was measured using a microplate reader at excitation and emission wavelengths of 360 and 460 nm, respectively. The inhibition ratios were calculated from the fluorescence intensity readings of tested wells relative to those of control wells, and the IC50 curves and values were determined by GraphPad Prism 6.0, using the “log(inhibitor) vs. normalized response-variable slope” function.

HDAC8 = biological target: T2, HDAC8 (Homo sapiens, UniProt Q9BY41); assay: In vitro HDAC inhibition fluorescence assay, HDAC8
T2 construct: purchased BPS Bioscience
T2 sequence (Q9BY41 1-377): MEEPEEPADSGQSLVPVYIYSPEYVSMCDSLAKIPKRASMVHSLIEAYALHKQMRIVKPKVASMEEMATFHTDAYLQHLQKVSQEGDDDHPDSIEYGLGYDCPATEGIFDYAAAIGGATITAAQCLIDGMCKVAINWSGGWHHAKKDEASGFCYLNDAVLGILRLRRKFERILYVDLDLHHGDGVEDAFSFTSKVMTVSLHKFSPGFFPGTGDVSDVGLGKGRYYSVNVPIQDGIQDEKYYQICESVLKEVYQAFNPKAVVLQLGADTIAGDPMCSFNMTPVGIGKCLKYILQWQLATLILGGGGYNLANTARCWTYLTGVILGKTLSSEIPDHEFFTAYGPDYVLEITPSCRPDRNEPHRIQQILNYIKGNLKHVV
Procedure: as §1

HDAC3 = biological target: T3, HDAC3 (Homo sapiens, UniProt O15379); assay: In vitro HDAC inhibition fluorescence assay, HDAC3
T3 construct: purchased BPS Bioscience
Procedure: All of the HDAC enzymes were purchased from BPS Bioscience. In vitro HDAC inhibition assays were conducted as previously described. In brief, 20 μL of recombinant HDAC enzyme solution (HDAC1-9, 11) was mixed with various concentrations of the tested compound (20 μL). […] After incubation at 37 °C for 2 h, the catalysis was stopped by the addition of 10 μL of developer containing 30 mg/mL trypsin and 6 μM trichostatin A (TSA). Then, 30 min later, the fluorescence intensity was measured using a microplate reader at excitation and emission wavelengths of 360 and 460 nm, respectively. The inhibition ratios were calculated from the fluorescence intensity readings of tested wells relative to those of control wells, and the IC50 curves and values were determined by GraphPad Prism 6.0, using the “log(inhibitor) vs. normalized response-variable slope” function.

T3 sequence (O15379 whole entry): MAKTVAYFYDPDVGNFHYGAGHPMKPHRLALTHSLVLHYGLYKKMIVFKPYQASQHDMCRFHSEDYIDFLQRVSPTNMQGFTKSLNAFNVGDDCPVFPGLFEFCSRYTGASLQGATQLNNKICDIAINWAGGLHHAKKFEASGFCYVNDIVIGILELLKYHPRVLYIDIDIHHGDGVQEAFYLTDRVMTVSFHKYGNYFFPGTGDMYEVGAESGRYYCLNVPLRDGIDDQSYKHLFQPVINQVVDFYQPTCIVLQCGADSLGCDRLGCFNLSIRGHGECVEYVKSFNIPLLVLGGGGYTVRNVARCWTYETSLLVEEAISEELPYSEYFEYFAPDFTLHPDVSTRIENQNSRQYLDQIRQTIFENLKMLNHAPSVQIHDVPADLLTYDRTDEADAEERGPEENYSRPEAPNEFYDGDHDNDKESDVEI
T3 sequence (Q9Y618 395-489 partner limits assumed): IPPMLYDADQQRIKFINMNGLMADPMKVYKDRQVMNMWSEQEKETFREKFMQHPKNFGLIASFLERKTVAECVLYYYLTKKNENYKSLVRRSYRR

CCCNNC(=O)C=Cc1ccc(CNCCc2ccccc2)cc1 [Compound 25c, 3-(4-((Phenethylamino)methyl)phenyl)-N′-propylacrylohydrazide]
IC50 (HDAC6): > 10000 nM | IC50 (HDAC8): 4110 ± 630 nM | IC50 (HDAC3): 2.4 nM and 2.39 nM and 2.3 nM | inhibition at 0.01 µM (HDAC3; 10 nM, read-out: Inhibition Rate of HDAC3 (%)): > 95% | inhibition at 0.1 µM (HDAC3; 100 nM, read-out: Inhibition Rate of HDAC3 (%)): 95.1 ± 0.1%
